# Test results from patent US10308617B2, “Triazole benzamide derivatives and the compositions and methods of treatment regarding the same” (An2H Discovery Limited, priority 2016, dated 2019).
# Read-outs that look alike come from different tables or passages of the source.
# Assays:
# A549 (lung) = assay: Cancer Cell Proliferation Assay (acid phosphatase, 72 hrs); format: cell-based; details: Homo sapiens
# Method: (§1) Measurement of the inhibitive effect of compounds on cancer cell proliferation was performed. Various cell lines were tested, including HCT-116 (colon); A549 (lung); TOV-21G (ovarian); Calu-6 (lung); H1703 (Lung); LS-174T (colon); and SKOV3 (ovarian). The assays were performed under the following conditions: Cells are harvested at a concentration of 4×10^4 cells/ml in media. Volumes of 100 μl/well of these cell suspensions were added to a 96 well plate using a multichannel pipette. Plates were gently agitated to ensure an even dispersion of cells over a given plate. Cells were then incubated at 37° C., 5% CO^2 overnight. Following this, 100 μl of compound at varying concentrations was added to wells in triplicate. Control wells are those with 100 μl media containing 0.33% DMSO added to cell suspension (this is the equivalent volume of DMSO found in the highest concentration of drug). Plates were then gently agitated, as above, and incubated at 37° C., 5% CO2 for 72 hrs (control wells have reached 80-90% confluency). Assessment of cell proliferation in the presence of the compound was determined by the acid phosphatase assay.
# (§2) Following the incubation period of 72 hrs, media was removed from the plates. Each well on the plate was washed twice with 100 μl PBS. This was then removed and 100 μl of freshly prepared phosphatase substrate (10 mM p-nitrophenol phosphate in 0.1M sodium acetate, 0.1% triton X-100, pH 5.5) was added to each well. The plates were then incubated in the dark at 37° C. for 2 hours. Colour development was monitored during this time. The enzymatic reaction was stopped by the addition of 50 μl of 1N NaOH. The plate was read in a dual beam plate reader at 405 nm with a reference wavelength of 620 nm. The absorbance reading of the latter is subtracted from the former, and the effect of the drug on cell proliferation was then measured as a percentage against the control cells (DMSO), which is taken as 0% inhibition. […] FIG. 14 A-K also show the % inhibition curves of various compounds on these cancer cell lines with the 72 hrs proliferation assay.
# Calu-6 (lung) = assay: as above; format: cell-based; details: Homo sapiens, read-out: IC50 on cancer cell line proliferation, Calu6
# Method: as §1, §2
# H1703 (Lung) = assay: as above; format: cell-based; details: Homo sapiens, NCI-H1703, read-out: IC50 on cancer cell line proliferation, H1703
# Method: as §1, §2
# HCT-116 (colon) = assay: as above; format: cell-based; details: Homo sapiens, read-out: IC50 on cancer cell line proliferation, HCT-116
# Method: as §1, §2
# LS-174T (colon) = assay: as above; format: cell-based; details: Homo sapiens, LS174T, read-out: IC50 on cancer cell line proliferation, LS-174T
# Method: as §1, §2
# SKOV3 (ovarian) = assay: as above; format: cell-based; details: Homo sapiens, SK-OV-3, read-out: IC50 on cancer cell line proliferation, SKOV3
# Method: as §1, §2
# TOV-21G (ovarian) = assay: as above; format: cell-based; details: Homo sapiens, TOV21G, read-out: IC50 on cancer cell line proliferation, TOV-21G
# Method: as §1, §2
# [1] = Microsomal Stability Assay, human liver microsomes; format: in vitro ADME; details: pH 7.4, 1 μM compound, 1.0 mg/mL microsome, NADPH, read-out: HLM t1/2
# Method: Compounds were also tested for metabolic stability in both rat liver microsomes (RLM) and human liver microsomes (HLM) and their half-life calculated (See Table 5). The assay was performed as follows. The total volume for each incubation was 250 μL. A 100 μM DMSO solution of compound (diluted from 10 mM stock solution) was spiked into 50 mM KH2PO4 (pH 7.4) buffer containing liver microsome at a concentration of 1.0 mg/mL. The reaction was initiated by the addition of 50 μL of 1 mM NADPH. The final concentration of each compound was 1 μM (1% DMSO). The positive controls, phenacetin for CYP1A2, diclofenac for CYP2C9, omeprazole for CYP2C19, dextromethorphan for CYP2D6 and midazolam for CYP3A4 were added to a separate tube with the final substrate concentrations of 1 μM (1% DMSO) for evaluating the enzyme activities in the liver microsomes. At 0, 15, 30 and 60 min, an aliquot of 15 μL reaction mixtures were removed and 200 μL of methanol (with internal standard of 25 ng/mL propranolol) was added to quench the reaction. The resulting mixture was centrifuged and supernatant was used for LC-MS/MS analysis.
# The signals for each compound, or the metabolites for the probe substrates and the internal standard were integrated and the peak area ratios to internal standard were generated. Percent parent remaining at a specified timepoint was calculated based on the peak area ratios at time 0 (as 100%) for in vitro metabolic stability studies in liver microsome and hepatocyte. The observed rate constant (kobs) for the metabolism of substrates was calculated by plotting the natural log of percentage substrate remaining versus time of incubation with the slope being kobs. The half-life (T1/2) was calculated according to the following equation: T1/2=0.693/kobs
# [2] = Oral Bioavailability (PO) and Pharmacokinetics Assay; format: in vivo, Sprague-Dawley rats; details: rat; for Cmax: read-out: C0 or Cmax (ng/mL): Cmax; for half-life: read-out: T½ (converted)
# [3] = read-out: IC50 on cancer cell line proliferation, A549
# [4] = male, Sprague-Dawley, plasma, PO 5 mg/kg
# [5] = male, Sprague-Dawley, plasma, PO 5 mg/kg, read-out: F (%) oral bioavailability
# [6] = male, Sprague-Dawley, plasma, iv, 1 mg/kg, IV bolus 1 mg/kg
# [7] = male, Sprague-Dawley, plasma, po, 5 mg/kg, PO 5 mg/kg
# [8] = male, Sprague-Dawley, plasma, IP 3 mg/kg
Structure (SMILES),IC50 (A549 (lung); [3]),IC50 (Calu-6 (lung)),IC50 (H1703 (Lung)),IC50 (HCT-116 (colon)),IC50 (LS-174T (colon)),IC50 (SKOV3 (ovarian)),IC50 (TOV-21G (ovarian)),half-life at 1 μM [1],"half-life [2, 6]",further results
O=C(/C=C/c1ccccc1)Nc1nc(NC(=O)c2ccccc2)nn1-c1ccccn1 [Compound U1],–,–,–,–,–,–,–,0.115 h,–,–
Cc1ccccc1C(=O)Nc1nc(-c2ccccn2)nn1-c1ccccc1 [Compound Q2],2.16 µM,–,~2.53 µM,1.64 µM,2.29 µM,2.08 µM,1.6 µM,–,–,–
Cc1ccccc1C(=O)Nc1nc(NC(=O)c2ccccc2)n(-c2ccccc2)n1 [Compound H],–,–,–,–,–,–,–,–,0.69 h,"Tmax [2, 4]: 1.33 h; Cmax [2, 4]: 91 ng/mL; bioavailability [2, 5]: 6.2%; half-life [2, 7]: 1.7 h; Oral Bioavilability (PO PK) F [2]: F = 6%"
"Cc1ccc(-c2nc(NC(=O)c3ccccc3C)n(-c3ccccc3)n2)nc1 [Compound R3, 2-methyl-N-(3-(5-methylpyridin-2-yl)-1-phenyl-1H-1,2,4-triazol-5-yl)benzamide]",1.98 µM,3.37 µM,2.62 µM,1.3 µM,1.69 µM,2.71 µM,1.19 µM,–,–,–
"Cc1ccccc1C(=O)Nc1nc(NC(=O)c2ccccc2)nn1-c1ccccc1 [Compound K, N-(5-benzamido-2-phenyl-1,2,4-triazol-3-yl)-2-methyl-benzamide]",2.53 µM,–,3.46 µM,1.92 µM,3.11 µM,3.14 µM,1.35 µM,–,0.6 h,"Tmax [2, 4]: 0.42 h; Cmax [2, 4]: 52.4 ng/mL; bioavailability [2, 5]: 4%; half-life [2, 7]: 2.1 h; Oral Bioavilability (PO PK) F [2]: F = 4%"
"O=C(/C=C/c1ccccc1)Nc1nc(NC(=O)c2ccccc2)nn1-c1ccccc1 [Compound C, N-(5-cinnamamido-1-phenyl-1H-1,2,4-triazol-3-yl)benzamide]",2.26 µM,–,2.59 µM,1.67 µM,2.2 µM,3.16 µM,1.74 µM,1.3 h,0.71 h,"Tmax [2, 4]: 0.38 h; Cmax [2, 4]: 50.5 ng/mL; bioavailability [2, 5]: 2.4%; half-life [2, 7]: 2.3 h; Oral Bioavilability (PO PK) F [2]: F = 2%"
"O=C(Nc1nc(NC(=O)c2ccccc2)n(-c2ccccc2)n1)c1ccccc1 [Compound A, N,N′-(1-phenyl-1H-1,2,4-triazole-3,5-diyl)dibenzamide]",–,–,–,–,–,–,–,2.52 h,0.85 h,"bioavailability ([2]; male, Sprague-Dawley, plasma, IV bolus 1 mg/kg, read-out: F (%)): 100%; Tmax [2, 4]: 0.417 h; Cmax [2, 4]: 249 ng/mL; bioavailability [2, 5]: 6.85%; half-life [2, 7]: 1.6 h; T½ ([2]; PO 5 mg/kg, 5 mg/kg): 1.62 h"
"Cc1ccccc1C(=O)Nc1nc(NC(=O)c2ccccc2C)n(-c2ccccc2)n1 [Compound F, 2-methyl-N-[5-[(2-methylbenzoyl)amino]-1-phenyl-1,2,4-triazol-3-yl]benzamide]",2.65 µM,–,–,2.28 µM,2.67 µM,3.3 µM,2.22 µM,9.63 h,2.5 h,"AUC(0-t) [2, 8]: 9590 ng·h/mL; Tmax [2, 8]: 1.3 h; Cmax [2, 8]: 1470 ng/mL; bioavailability ([2]; male, Sprague-Dawley, plasma, IP 3 mg/kg, read-out: F systemic bioavailability): 75%; half-life ([2]; male, Sprague-Dawley, plasma, ip, 3 mg/kg, IP 3 mg/kg): 3.2 h"

# The next lines start with results.
IC50 (A549 (lung); [3]),IC50 (Calu-6 (lung)),IC50 (H1703 (Lung)),IC50 (HCT-116 (colon)),IC50 (LS-174T (colon)),IC50 (SKOV3 (ovarian)),IC50 (TOV-21G (ovarian)),half-life at 1 μM [1],"half-life [2, 6]",Structure (SMILES),further results
0.253 µM,1.06 µM,0.481 µM,0.132 µM,0.391 µM,0.606 µM,0.21 µM,–,–,O=C(Nc1nc(NC(=O)c2ccccc2)n(-c2ccc(OC(F)(F)F)cc2)n1)c1ccccc1 [Compound Z1],–
0.823 µM,2.41 µM,3.04 µM,0.485 µM,0.497 µM,0.737 µM,0.751 µM,–,–,Cc1ccccc1C(=O)Nc1nc(-c2ccccn2)nn1-c1ccc(OC(F)(F)F)cc1 [Compound H3],–
0.893 µM,3.34 µM,4.7 µM,0.351 µM,0.938 µM,1.18 µM,0.495 µM,–,–,"O=C(Nc1nc(-c2ccccn2)nn1-c1ccccc1)c1ccccc1 [Compound Y1, N-(1-phenyl-3-(pyridin-2-yl)-1H-1,2,4-triazol-5-yl)benzamide]",–
–,2.27 µM,–,0.939 µM,1.52 µM,1.23 µM,0.989 µM,0.642 h,–,"O=C(Nc1nc(Nc2ncnc3ccccc23)n(-c2ccccc2)n1)c1ccccc1 [Compound L, N-[1-phenyl-5-(quinazolin-4-ylamino)-1,2,4-triazol-3-yl]benzamide]","IC50 (A549 (lung); A549, 72 h, heading: IC50 on cancer cell line proliferation): 1.55 µM"
0.878 µM,2.36 µM,2.71 µM,0.482 µM,0.522 µM,0.65 µM,0.566 µM,–,–,"Cc1ccccc1C(=O)Nc1nc(-c2ncccc2C)nn1-c1ccccc1 [Compound S3, 2-methyl-N-(3-(3-methylpyridin-2-yl)-1-phenyl-1H-1,2,4-triazol-5-yl)benzamide]",–
0.613 µM,0.194 µM,1.54 µM,0.294 µM,1.73 µM,2.06 µM,0.688 µM,–,–,Cc1ccccc1C(=O)Nc1nc(NC(=O)c2ccccc2C)n(-c2ccc(Cl)cc2)n1 [Compound Q3],–
